Measured values taken from US20050169912A1, “Immunogenic peptides and uses thereof” (priority 2001, published 2005).

Tested on: antibody in sera from Helicobacter pylori infected patients and healthy control subjects
Experiment: Immunoassay detecting serum antibodies specific for individual peptide antigens
Type: binding, human
Conditions: for functional specificity for the H. pylori protein: candidate sequences tested, FIGS. 4 and 5; for ability of peptide to identify Helicobacter pylori infected individuals: 30 infected patients vs 30 healthy controls, threshold control mean plus 2.5 standard deviations
Text: 1. Possible Outcomes for Peptides Screened as Antigens in Serum Antibody Assays:
1. A positive result indicating the presence of a peptide-specific antibody in patient biological fluid samples, absent evidence of antibody in samples from subjects without the microorganism or autoimmune disease (FIG. 3) indicates the tested peptide is a specific peptide (immunogen) for a targeted protein.
3. No difference in positive antibody levels between patients and subjects without disease.
2. Immunoassay Method 1: Used to Detect Serum IgA, IgD, IgE, IgG, and IgM Antibodies Specific for Individual Peptide Antigens
(§1) Peptide solution: 0.06 μg/mL peptide dissolved in 20 mM Tris chloride, pH 7.4, containing 600 mM sodium chloride, 30 mg/mL polyethylene glycol 4000, 1 mm ethylenediaminetetraacetic acid, 1 mM ethylene glycol-bis(§-aminoethyl ether)N,N,N′,N′-tetraacetic acid, 0.5 mg/mL triton x-405 and 0.2 mg/mL thimerosal.
as §1, with “Control peptide” for “Peptide”, “0.013” for “0.06”, “μg/mL control” for “μg/mL”
Conjugate solution: 0.100 μg/mL alkaline phosphatase conjugated polyclonal goat anti human IgG dissolved in 20 mM Tris-HCL, pH 7.40, with 600 mM sodium chloride, 30.0 mg/mL peg-4000, 3.0 mg/mL BSA, 0.5 mg/mL triton x-405 and 0.20 mg/mL thimerosal.
Substrate solution: 25.2 μg/mL 4-methylumbelliferyl phosphate dissolved in 180 mM 2-amino-2-methyl-1-propanol, pH 9.50, containing 123 μM magnesium chloride.
Serum preparation: • 1. Add 100 μl serum to 15 neutravidin^a coated paper discs in a suitably sized test tube. • 2. Incubate with gentle mixing at ambient temperature for 16-20 hours. • 3. Add 7.9 mL of serum diluent and mix gently for 30 minutes. • 4. Vortex the tube gently to completely release the serum from the discs. • 5. Remove the treated serum from the discs and transfer it to a suitable storage tube. • 6. Store the treated serum at 4 EC.
Assay procedure: • 1. Two days before assay, aspirate the storage solution from the NeutrAvidin^a coated white microtiter plate and add 200 μl plate blocking solution to each well. • 2. Cover the plate and incubate at ambient temperature for 16-20 hours. • 3. One day before assay. Wash the blocked plate three times with plate wash buffer, approximately 275 μl per well per wash. Aspirate the final wash and add 100 μl peptide solution or 100 μl control peptide solution to the appropriate wells of the plate. • 4. Cover the plate and incubate with gentle mixing at ambient temperature for 16-20 hours. • 5. Day of assay, wash the blocked plate three times with plate wash buffer, approximately 275 μl per well per wash. Aspirate the final wash and add 100 μl treated serum to the appropriate wells of the plate. • 6. Cover the plate and incubate at 25 EC for 2 hours. • 7. Wash the blocked plate six times with plate wash buffer, approximately 275 μl per well per wash. Aspirate the final wash and add 100 μl conjugate solution to each assay well. • 8. Cover the plate and incubate at 25 EC for 1.5 hours. • 9. Wash the blocked plate six times with plate wash buffer, approximately 275 μl per well per wash. Aspirate the final wash and add 100 μl substrate solution to each assay well. • 10. Read the plate at 30 and 60 minutes in a fluorescence microtiter plate reader set at 365 nm excitation and 450 nm emission. 3. Biotinylation of Human Serum Albumin

Sequence | functional specificity for the H. pylori protein | ability of peptide to identify Helicobacter pylori infected individuals | detection of fluids from infected persons (Example 1, FIGS. 3-5) | Helicobacter pylori infected individuals identified by the peptide (sera from 30 H. pylori infected patients, positive/negative threshold control mean) | control sera identified as positive for the peptide (sera from 30 healthy control subjects, antibodies to the peptide)
KNLESYQKDA | not functionally specific |  |  |  | 
QKDAKECKGKRN |  | does not serve to identify Helicobacter pylori infected individuals |  |  | 
MQEIDKKLTQKN |  |  | detected fluids from infected persons | three | no control sera were incorrectly identified as positive
QKDAKELKGKRN | not functionally specific | does not serve to identify Helicobacter pylori infected individuals |  |  | 
